Values quoted from earlier work as cited in patent US20070185065A1, “Combination therapy for coronary artery disease” (priority 2006, published 2007).
Where two headings read alike, the source gives them in different places.

Legend:
[1] = tested on: patients with atherosclerosis not limited to MI; conditions: compared to aspirin, three year period
[2] = tested on: patients with known CHD and an HDL-C concentration below 45 mg/dL already receiving a statin
[3] = tested on: proinflammatory cytokines and C-reactive protein (CRP); conditions: six weeks of therapy
[4] = tested on: asymptomatic patients with an LVEF 40 percent after MI; conditions: mean follow-up of 42 months
[5] = tested on: patients with systolic left ventricular dysfunction (SLVD) post-MI
[6] = tested on: patients with chronic stable angina; conditions: six weeks therapy, metoprolol 200 mg daily
[7] = tested on: patients with clinical evidence of HF post-MI
[8] = tested on: patients who have had an acute MI; conditions: 160 mg twice daily

COC(=O)[C@H](c1ccccc1Cl)N1CCc2sccc2C1 [Clopidogrel, clopidogrel]
fatal or nonfatal MI [1]: significant reduction

O=C(O)c1cccnc1 [ER niacin, niacin]
mean increase in HDL-C ([2]; 1000 mg daily, on top of a statin): 21% | HDL-C on treatment ([2]; 1000 mg daily, 1.0 mmol/L at baseline): 1.22 mmol/L | HDL-C on treatment ([2]; 1000 mg daily, 39 mg/dL at baseline): 47 mg/dL | cardiovascular events, percent of patients ([2]; 9.6 percent with placebo, p=0.20): 3.8% | increase in mean carotid intima-media thickness (CIMT) ([2]; after one year of therapy, ultrasound, p=0.23, placebo 0.044 mm): 0.014 mm

CC(=O)Oc1ccccc1C(=O)O [aspirin]
markers of inflammation (proinflammatory cytokines and CRP) [3]: significantly reduced

C[C@H](CS)C(=O)N1CCC[C@H]1C(=O)O [captopril]
reduction in hospitalization for HF [4]: 22% | reduction in the incidence of recurrent MI [4]: 25% | reduction in the incidence of severe HF [4]: 37% | decrease in mortality ([4]; versus placebo, 95% CI 3 to 32 percent): 19% | mortality ([4]; 25 percent for placebo): 20%

COC(=O)[C@@H]1CC2=CC(=O)CC[C@]2(C)[C@@]23O[C@@H]2C[C@@]2(C)[C@@H](CC[C@@]24CCC(=O)O4)[C@H]13 [eplerenone]
reduction in combined primary endpoint of CV mortality and CV hospitalization ([5]; added to standard therapy): 13% | reduction in CV mortality ([5]; added to standard therapy, P=0.005): 17% | reduction in all-cause mortality ([5]; added to standard therapy, P=0.008): 15% | further reduction in mortality ([5]; subgroup already receiving ACE inhibitors and beta-blockers): 27%

COCCc1ccc(OCC(O)CNC(C)C)cc1 (centres unmarked) [metoprolol]
increase in mean exercise time to 1-mm ST segment depression ([6]; long-acting preparations, nifedipine 20 mg BID): 70 s | frequency of angina [6]: reduced the frequency of angina

CCOC(=O)[C@H](CCc1ccccc1)N[C@@H](C)C(=O)N1[C@H](C(=O)O)C[C@@H]2CCC[C@@H]21 [ramipril]
mortality ([7]; 603 United Kingdom patients followed for a mean of 59 months, 39 percent placebo): 28% | reduction in sudden death ([7]; average of 15 months follow-up): 30% | reduction in the incidence of severe, resistant HF ([7]; average of 15 months follow-up): 23% | decrease in mortality ([7]; average of 15 months follow-up, versus placebo, 95% CI 11 to 40 percent): 27% | incidence of severe, resistant HF ([7]; average of 15 months follow-up, 18 percent for placebo): 14% | mortality ([7]; average of 15 months follow-up, 23 percent with placebo): 17% | relative risk reduction (mortality) ([7]; mean of 59 months, 95% CI 15 to 52 percent): 36%

CCCCC(=O)N(Cc1ccc(-c2ccccc2-c2nnn[nH]2)cc1)[C@H](C(=O)O)C(C)C [valsartan]
reduction in mortality after an MI compared to an ACE inhibitor [8]: as effective as an ACE inhibitor
